From patent publication US12187699B2, “GSPT1 compounds and methods of use of the novel compounds” (BRISTOL-MYERS SQUIBB COMPANY, priority 2022, dated 2025)

biological target: T1, ePL-tagged GSPT1 (Homo sapiens, UniProt P15170+Q96SW2); test: GSPT1 DiscoverX Degradation Assay; format: cell-based; conditions: DF15 multiple myeloma cells expressing ePL-tagged GSPT1; twenty hours; minimum of percent of control curve (Ataluren control Y constant=0, DMSO control = Y max)
T1 construct: expressed in transfected cells; host or cells: DF15 multiple myeloma cells
T1 sequence (P15170 whole entry): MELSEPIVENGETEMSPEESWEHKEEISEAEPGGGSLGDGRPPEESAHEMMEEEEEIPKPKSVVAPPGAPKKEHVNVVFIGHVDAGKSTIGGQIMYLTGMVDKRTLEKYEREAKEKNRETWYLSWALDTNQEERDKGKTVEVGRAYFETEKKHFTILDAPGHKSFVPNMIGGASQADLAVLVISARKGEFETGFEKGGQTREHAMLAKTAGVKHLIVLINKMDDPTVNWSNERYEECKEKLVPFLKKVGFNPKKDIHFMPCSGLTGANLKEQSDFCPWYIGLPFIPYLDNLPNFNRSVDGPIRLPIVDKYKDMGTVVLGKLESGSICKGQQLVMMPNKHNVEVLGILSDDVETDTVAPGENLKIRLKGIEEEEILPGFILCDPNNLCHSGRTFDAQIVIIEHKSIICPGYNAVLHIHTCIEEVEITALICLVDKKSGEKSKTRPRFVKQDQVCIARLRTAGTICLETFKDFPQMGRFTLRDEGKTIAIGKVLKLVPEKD
T1 sequence (Q96SW2 whole entry): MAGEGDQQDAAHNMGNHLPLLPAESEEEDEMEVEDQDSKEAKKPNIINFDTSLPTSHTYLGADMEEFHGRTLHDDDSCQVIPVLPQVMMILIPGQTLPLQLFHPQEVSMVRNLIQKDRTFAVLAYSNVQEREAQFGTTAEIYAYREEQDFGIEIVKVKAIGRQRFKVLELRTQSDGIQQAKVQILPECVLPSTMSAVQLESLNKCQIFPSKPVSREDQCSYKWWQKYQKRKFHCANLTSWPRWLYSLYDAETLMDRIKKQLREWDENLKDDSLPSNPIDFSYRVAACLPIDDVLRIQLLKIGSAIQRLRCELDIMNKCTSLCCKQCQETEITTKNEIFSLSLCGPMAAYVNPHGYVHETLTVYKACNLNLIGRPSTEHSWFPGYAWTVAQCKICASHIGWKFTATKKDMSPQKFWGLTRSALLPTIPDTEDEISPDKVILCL
T1 sequence (Q16531 whole entry partner): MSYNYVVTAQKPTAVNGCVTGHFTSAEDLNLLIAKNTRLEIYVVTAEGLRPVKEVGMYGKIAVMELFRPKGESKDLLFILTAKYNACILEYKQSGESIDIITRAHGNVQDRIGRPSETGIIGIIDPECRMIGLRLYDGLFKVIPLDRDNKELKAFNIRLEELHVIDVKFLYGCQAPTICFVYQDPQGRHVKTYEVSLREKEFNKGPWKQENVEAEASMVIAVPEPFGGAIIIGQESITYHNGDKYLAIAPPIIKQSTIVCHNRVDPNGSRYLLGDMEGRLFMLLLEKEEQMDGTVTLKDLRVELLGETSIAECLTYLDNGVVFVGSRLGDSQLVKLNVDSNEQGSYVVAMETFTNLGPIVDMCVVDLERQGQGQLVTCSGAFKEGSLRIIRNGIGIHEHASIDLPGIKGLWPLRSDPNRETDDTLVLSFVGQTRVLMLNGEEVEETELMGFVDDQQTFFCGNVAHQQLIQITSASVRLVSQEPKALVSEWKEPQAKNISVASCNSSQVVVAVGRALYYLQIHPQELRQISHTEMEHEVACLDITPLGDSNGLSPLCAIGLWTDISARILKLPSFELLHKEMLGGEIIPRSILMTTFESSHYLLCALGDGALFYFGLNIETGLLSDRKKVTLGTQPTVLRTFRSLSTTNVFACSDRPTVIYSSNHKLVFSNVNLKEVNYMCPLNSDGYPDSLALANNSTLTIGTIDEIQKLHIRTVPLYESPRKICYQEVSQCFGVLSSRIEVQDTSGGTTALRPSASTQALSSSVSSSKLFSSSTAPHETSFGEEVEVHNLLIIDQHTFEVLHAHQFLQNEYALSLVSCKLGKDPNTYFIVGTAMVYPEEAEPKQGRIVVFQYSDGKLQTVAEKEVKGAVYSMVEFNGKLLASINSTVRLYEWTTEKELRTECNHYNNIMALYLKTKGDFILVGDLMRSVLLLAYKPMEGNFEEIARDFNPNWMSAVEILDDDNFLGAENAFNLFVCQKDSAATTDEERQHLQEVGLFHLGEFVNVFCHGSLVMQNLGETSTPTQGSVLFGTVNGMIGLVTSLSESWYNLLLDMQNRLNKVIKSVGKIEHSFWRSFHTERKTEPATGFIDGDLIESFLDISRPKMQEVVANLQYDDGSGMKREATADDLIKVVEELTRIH
Protocol: GSPT1 DiscoverX Degradation Assay.
Compounds were dispensed by an acoustic dispenser (ATS Acoustic Transfer System from EDC Biosystems) into a 384-well in a 10 pt dose response curve using 3 fold dilutions starting at 10 uM and going down to 0.0005 uM in DMSO. A DMSO control is added to the assay. […] Assay plates were incubated at 37° C. with 5% CO2 for twenty hours. After incubation, 25 μl of the InCELL Hunter™ Detection Reagent Working Solution (DiscoverX, cat #96-0002, Fremont, CA) was added to each well and incubated at room temperature for 30 minutes protected from light. After 30 minutes, luminescence was read on a PHERAstar luminometer (Cary, NC).
The minimum Y is reference to the Y constant. In the GSPT1 degradation assay, we use Ataluren® (luciferase inhibitor) as the control with a Y constant=0. The maximum limit is the Y max DMSO control. All percent of control GSPT1 degradation curves were processed and evaluated using Activity Base (IDBS).

GSPT1 Degradation Ymin	Compound
3.50	O=C1CCC(N2Cc3cc(CNC(=O)Nc4ccc(OCc5ccccc5O)cc4)ccc3C2=O)C(=O)N1 (centres unmarked) [Example 9, 1-((2-(2,6-dioxopiperidin-3-yl)-1-oxoisoindolin-5-yl)methyl)-3-(4-((2-hydroxybenzyl)oxy)phenyl)urea]
3.00	Nc1cccc(COc2ccc(NC(=O)NCc3ccc4c(c3)CN(C3CCC(=O)NC3=O)C4=O)cc2)c1 (centres unmarked) [Example 5, 1-(4-((3-aminobenzyl)oxy)phenyl)-3-((2-(2,6-dioxopiperidin-3-yl)-1-oxoisoindolin-5-yl)methyl)urea]
6.15	NCc1ccc(COc2ccc(NC(=O)NCc3ccc4c(c3)CN(C3CCC(=O)NC3=O)C4=O)cc2)c(C2CC2)c1 (centres unmarked) [Example 27, 1-(4-{[4-(aminomethyl)-2-cyclopropylphenyl]methoxy}phenyl)-3-{[2-(2,6-dioxopiperidin-3-yl)-1-oxo-2,3-dihydro-1H-isoindol-5-yl]methyl}urea]
10.04	CC(C)Oc1cc(CN)ccc1COc1ccc(NC(=O)NCc2ccc3c(c2)CN(C2CCC(=O)NC2=O)C3=O)cc1 (centres unmarked) [Example 24, 1-(4-{[4-(aminomethyl)-2-(propan-2-yloxy)phenyl]methoxy}phenyl)-3-{[2-(2,6-dioxopiperidin-3-yl)-1-oxo-2,3-dihydro-1H-isoindol-5-yl]methyl}urea]
54.45	NCc1ccc(COc2ccc(NC(=O)NCc3ccc4c(c3)CN(C3CCC(=O)NC3=O)C4=O)cc2F)cc1 (centres unmarked) [Example 18, 1-(4-{[4-(aminomethyl)phenyl]methoxy}-3-fluorophenyl)-3-{[2-(2,6-dioxopiperidin-3-yl)-1-oxo-2,3-dihydro-1H-isoindol-5-yl]methyl}urea]
5.50	NCc1ccc(COc2ccc(NC(=O)NCc3ccc4c(c3)CN(C3CCC(=O)NC3=O)C4=O)cc2)c(Cl)c1 (centres unmarked) [Example 25, 1-(4-{[4-(aminomethyl)-2-chlorophenyl]methoxy}phenyl)-3-{[2-(2,6-dioxopiperidin-3-yl)-1-oxo-2,3-dihydro-1H-isoindol-5-yl]methyl}urea]
6.92	NCc1ccc(COc2ccc(NC(=O)NCc3ccc4c(c3)CN(C3CCC(=O)NC3=O)C4=O)cc2)c(OC2COC2)c1 (centres unmarked) [Example 26, 1-(4-{[4-(aminomethyl)-2-(oxetan-3-yloxy)phenyl]methoxy}phenyl)-3-{[2-(2,6-dioxopiperidin-3-yl)-1-oxo-2,3-dihydro-1H-isoindol-5-yl]methyl}urea]
8.85	COc1cc(CN)ccc1COc1ccc(NC(=O)NCc2ccc3c(c2)CN(C2CCC(=O)NC2=O)C3=O)cc1 (centres unmarked) [Example 23, 1-(4-{[4-(aminomethyl)-2-methoxyphenyl]methoxy}phenyl)-3-{[2-(2,6-dioxopiperidin-3-yl)-1-oxo-2,3-dihydro-1H-isoindol-5-yl]methyl}urea]
